“And” between values parts separate entries of the source, which are not always exact repeats. Identical values can stand only once. “Also recorded” adds a separate entry of the source.
Legend:
MC38 colon tumors = assay: Syngeneic MC38 mouse colon carcinoma model
Renca = conditions: CPI-444 10 mg/kg from Day 16, 14 days; 50 mg/kg Cyclophosphamide on first day
A2AR [1] = target: T1, A2AR (Homo sapiens, UniProt P29274); assay: cAMP production in NECA-stimulated primary human T cells (LANCE Ultra cAMP); type: cell-based; set-up: endogenous in cells; host or cells: primary human T cells / human PBMCs
T1 sequence (P29274 whole entry): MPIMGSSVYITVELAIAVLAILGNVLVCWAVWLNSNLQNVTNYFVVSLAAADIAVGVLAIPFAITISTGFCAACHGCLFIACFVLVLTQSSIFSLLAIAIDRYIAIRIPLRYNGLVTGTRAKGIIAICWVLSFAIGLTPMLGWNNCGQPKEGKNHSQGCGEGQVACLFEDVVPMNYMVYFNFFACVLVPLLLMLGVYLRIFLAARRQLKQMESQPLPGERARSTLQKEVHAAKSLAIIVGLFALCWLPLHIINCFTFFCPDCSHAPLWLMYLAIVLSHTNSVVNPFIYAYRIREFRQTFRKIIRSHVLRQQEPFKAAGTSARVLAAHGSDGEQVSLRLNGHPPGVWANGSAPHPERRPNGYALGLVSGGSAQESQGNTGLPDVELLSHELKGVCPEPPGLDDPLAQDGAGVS
Protocol: Adenosine signaling through A2AR leads to increases in the levels of cAMP.
T cells were isolated from human PBMC by negative selection and activated via CD3/CD28 stimulation for 48 hours to induce A2AR expression. Stimulated T cells were then “rested” for 24 hours by removal of CD3/CD28 stimulation in order to minimize background levels of cAMP.

A2AR [2] = target: T1, A2AR; assay: IL-2 and IFNγ secretion from activated primary human PBMCs (AlphaLISA); type: cell-based; set-up: endogenous in cells; host or cells: primary human T cells / human PBMCs; conditions: CPI-444 1 μM; NECA or CGS21680 1 μM; anti-CD3/anti-CD28 48 hours
Protocol: Purified anti-CD3 and anti-CD28 monoclonal antibodies (1 ug/ml) were then added to activate T cells for 48 hours.
Purified anti-CD3 and anti-CD28 monoclonal antibodies (1 ug/ml) were then added to activate T cells for 48 hours. In this study, AlphaLISA assays (PerkinElmer) analyzed on an EnVision MultiLabel Reader were used to measure cytokine release according to the manufacturer's instructions.

[3] = Plasma levels of CPI-444 in patients; type: in vivo, human; conditions: Day 14
CT26 colon tumors = assay: Syngeneic CT26 mouse colon cancer model; conditions: CPI-444 100 mg/kg oral Day 0, 12 days, anti-PD-1 100 ug i.p. days 7, 9, 11, 13
Description: Treatment continued for 12 days.
Treatment continued for 7 days. […] Treatment continued for 7 days.
Treatment continued for 7 days.

solid tumor patients = assay: Phase 1/1b clinical trial in solid tumor patients; type: in vivo, human
Protocol: After a dose selection stage, pts are treated in 10 disease specific cohorts (5 single agent and 5 combination). Cohorts may be expanded based on response criteria: complete response, partial response or stable disease (SD). Biomarkers are evaluated including immune cells by flow cytometry in peripheral blood and pre/post treatment tumor biopsies as well as adenosine pathway modulation by immunohistochemistry and gene expression.
In step 1 of the trial, patients were dosed with either 100 mg BID for 14 days out of a 28 day cycle, 100 mg BID for 28 days, 200 mg QD for 14 days or 50 mg or 100 mg BID for 14 days in combination with […]® (840 mg Q2W). Pharmacodynamic analysis was conducted on peripheral blood cells to inform dose selection. Step 1 of Phase1/1b was fully enrolled (n=48) and dose was selected (100 mg BID) based on pharmacodynamic analysis of A2AR pathway.

[4] = cited from earlier work
A2AR [5] = target: T1, A2AR; assay: pERK in human CD4+ T cells after TCR cross-linking; conditions: in the presence of NECA (1 μM)
A2AR [6] = target: T1, A2AR; assay: pCREB in fresh PBMCs (B cell population) stimulated with NECA; conditions: primarily B cells
Description: Adenosine signaling via A2AR leads to an increase in intracellular cAMP and subsequent phosphorylation of CREB.

[7] = test system: NECA-induced pCREB in B cells; assay: NECA-induced pCREB in B cells of whole blood of treated patients (flow cytometry)
Protocol: (§1) On day 14, blood was collected prior to dosing (0 hr, trough) and for a time course post-dose (1.5, 3, 5.5, 8 hr) (FIGS. 26-28). The level of signaling was determined and the percent inhibition on Day 14 compared to Day 1 pre-treatment was calculated.

EL4 lymphoma = assay: Syngeneic EL4 mouse lymphoma model; type: in vivo; conditions: CPI-444 10, 30, 100 mg/kg daily oral
Protocol: Syngeneic C57BL/6 female mice (8-10 weeks old) were injected (via subcutaneous route) with EL4 cells.

[8] = test system: NECA-induced pCREB in CD4+ T cells; assay: NECA-induced pCREB in CD4+ T cells of whole blood of treated patients (flow cytometry)
Protocol: as §1

SMILES: COc1cccc2c1C(=O)c1c(O)c3c(c(O)c1C2=O)C[C@@](O)(C(=O)CO)C[C@@H]3O[C@H]1C[C@H](N)[C@H](O)[C@H](C)O1 [Doxorubicin, reference compound]
- tumor growth (MC38 colon tumors; CPI-444 100 mg/kg from Day 11, 14 days, 4 mg/kg Doxorubicin on first day): slight tumor growth inhibition

SMILES: O=P1(N(CCCl)CCCl)NCCCO1 (centres unmarked) [Cyclophosphamide]
- tumor growth / response rate (Renca): slight tumor growth inhibition

SMILES: Cc1ccc(-c2nc(N)nc3c2nnn3Cc2cccc(COC3CCOC3)n2)o1 (centres unmarked) [CPI-444]
- cAMP production upon NECA stimulation, dependence on CPI-444 dose (A2AR [1]; FIG. 6): dose-dependent manner
- production of cAMP upon NECA treatment (A2AR [1]; all levels of NECA tested (10^-5 to 10^-9 M), 10 minutes): completely blocked
- IFNγ secretion in presence of A2AR agonist (A2AR [2]): restored
- IL-2 secretion in presence of A2AR agonist (A2AR [2]): restored
- time of peak plasma drug levels [3]: 3 h
- tumor growth, single agents (CT26 colon tumors): inhibition of tumor growth; also recorded: inhibits the growth; also recorded: non-significant reductions in tumor growth
- Grade 3 or 4 treatment related adverse events (solid tumor patients; 7 pts treated to date): no Grade 3 or 4 treatment related adverse events
- TCR clonality following treatment (solid tumor patients; Nivolumab-refractory lung cancer patient, FIG. 21C): increased clonality
- tumor response (solid tumor patients; Nivolumab-refractory lung cancer patient, single agent 100 mg po BID x 28 days/cycle): Tumor regression
- PD-1+/CD8+ (activated CD8) and memory cell frequencies in blood (solid tumor patients; single agent and combination cohorts): Increases
- TCR repertoire in peripheral blood (solid tumor patients; single agent, some patients): robust changes; also recorded: induced
- tolerability (solid tumor patients; solid tumor patients): well tolerated
- increases in PD-1+CD8+ cells in peripheral blood compared to baseline (solid tumor patients; the two pts with SD): 1.7 fold and 2.4 fold
- mice in which rechallenge tumors were fully rejected (MC38 colon tumors; 9 mice rechallenged, over 15 days after first 5 days): 9 mice
- tumor growth (MC38 colon tumors; CPI-444 1 mg/kg daily oral gavage 28 days, from one day after engraftment): did not inhibit tumor growth
- tumor growth (MC38 colon tumors; CPI-444 10 mg/kg daily oral, 10 mg/kg): significantly inhibits; also recorded: significant inhibition of tumor growth
- tumor growth (MC38 colon tumors; CPI-444 100 mg/kg daily oral, 100 mg/kg): significantly inhibits; also recorded: significant inhibition of tumor growth
- eliminates tumors (MC38 colon tumors; CPI-444 100 mg/kg from Day 9, 14 days, anti-CTLA-4 9H10 100 ug days 9, 12, 15, 18): 20 % of mice
- tumor growth, single agents (MC38 colon tumors; CPI-444 100 mg/kg from Day 9, anti-CTLA-4 100 ug): moderate tumor growth inhibition
- tumor growth, single agents (MC38 colon tumors; CPI-444 100 mg/kg oral Day 0, 12 days, anti-PD-L1 200 ug i.p. days 7, 10, 13, 16): inhibition of tumor growth
- eliminated tumors (MC38 colon tumors; CPI-444 dose response study): 30 % of mice
- tumor growth on re-challenge of cured mice (MC38 colon tumors; MC38 re-challenge): fully inhibited
- signs of reoccurrence (MC38 colon tumors; additional 6 weeks after end of study): No tumor growth was observed
- complete tumor regression (MC38 colon tumors; all cohorts (1, 10, 100 mg/kg)): observed in a subset of mice
- inhibition of tumor growth, dose response (MC38 colon tumors; daily CPI-444 1, 10, 100 mg/kg): dose-dependent inhibition
- tumor elimination (MC38 colon tumors; daily CPI-444 1, 10, 100 mg/kg): 9/30
- protected from rechallenge (MC38 colon tumors; mice with complete tumor growth inhibition, new MC38 engraftment, no additional treatment): 100%
- levels of immune checkpoints GITR, OX40, LAG3 on tumor infiltrating lymphocytes and circulating T cells (MC38 colon tumors; mouse, in vivo): modulated
- CD73 expression in tumors (IHC, frequency x intensity) (MC38 colon tumors; relative to control): significantly higher
- adverse events ([4]; 75 subjects previously dosed): no significant adverse events
- tolerability ([4]; non-oncology indications): well tolerated
- ERK signaling / pERK levels in CD4+ T cells (A2AR [5]): restored pERK levels in a dose-dependent manner
- NECA-induced CREB phosphorylation (A2AR [6]): completely inhibited
- inhibition of pCREB ([7]; 50 mg BID cohort): not high enough for sustained inhibition; also recorded: Variable inhibition
- inhibition of pCREB ([7]; 100 mg BID cohort): highest pCREB inhibition at trough and near complete inhibition after taking their morning dose; also recorded: high pCREB inhibition at trough and near complete inhibition after taking their morning dose
- patients with complete and sustained inhibition of NECA-induced pCREB ([7]; 100 mg BID single agent, Day 14): 7 of 7
- inhibition of pCREB ([7]; 200 mg QD cohort): achieves high peak levels but is not maintained at trough; also recorded: Variable inhibition
- pCREB induction by NECA ([7]; following 14 days of treatment): attenuated
- inhibition of NECA induced increase of pCREB ([7]; one subject, 200QD for 14 days, 1 μM NECA): partial inhibition
- response of established primary tumors (EL4 lymphoma): minimal therapeutic response
- tumor growth in regional lymph nodes (number and size of enlarged nodes) (EL4 lymphoma): significant dose-dependent inhibition; also recorded: significant, dose-dependent decrease
- CPI-444 plasma level above which pCREB inhibition is near complete [8]: greater than 2,000 ng/mL

Source: patent US20190022096A1, “METHODS OF TREATING CANCER” (Corvus Pharmaceuticals, Inc., priority 2017, published 2019)
